One molecule from patent publication US20080230094A1, “METHOD TO INHIBIT GROWTH OF MICROORGANISMS IN AQUEOUS SYSTEMS AND ON SUBSTRATES USING PERSULFATE AND A BROMIDE” (Buckman Laboratories International, Inc., priority 2007, published 2008) can be followed below.

This assay relates to Pseudomonas aeruginosa. The experiment in a line: Biocidal efficacy in pulp slurry inoculated with Pseudomonas aeruginosa (plate count, log reduction). It counts as cell-based. To be noted: 1000 ppm as pure compound in pulp slurry; 24 hr incubation. The procedure: A concentrated solution of active biocidal composition was prepared by mixing 44% (w/v) of aqueous ammonium persulfate with 40% (w/v) aqueous sodium bromide in equal volume. The final mixture contains 22% ammonium persulfate and 20% NaBr at pH 2.2. […] Four hours after mixing, the concentrated solution was diluted with water to contain 5% ammonium persulfate. This diluted solution (5%) was then added to 50 ml pulp slurry to give a biocidal concentration of 10 ppm (as ammonium persulfate) in pulp slurry. The pulp slurry was then inoculated with 3×10^6 cells/ml of Pseudomonas aeruginosa, incubated at room temperature for 24 hr, plated in nutrient agar. The colony forming units per milliliter (cfu/ml) was counted and compared with each individual component acting alone.
The pulp slurry contains white bleached dry pulp at 5 g/L; cationic starch at 10 bl/ton dry pulp; CaCO3 at 300 bl/ton dry pulp; ASA size at 3-4 lb/ton dry pulp; retention aids at 0.5-1.0 bl/ton dry pulp; defoamer at 250 g/ton dry pulp. The pulp slurry has a consistency of about 0.5 to 0.7%. The final pH of the pulp substrate after autoclave is about 8.0.

For the molecule `[Br-].[Na+]` [NaBr, sodium bromide], the CFU/ml is given as 4.2 × 10^6 CFU/ml and the “Log Reduction” value worked out at 0.00.
